Results from patent US9642835B2, “Modulators of GTPase and use in relevant treatment” (STC.UNM, priority 2010, dated 2017).

Columns and labels:
Cdc42 = Cdc42 (Homo sapiens, UniProt P60953); test: Fluorescent-GTP binding to Cdc42 (p38 inhibitor control)
[1] = molecular target: T1, Cdc42 GTPase in Swiss 3T3 cells (Mus musculus, UniProt P60766); test: GLISA; format: cell-based; details: approximately 10 μM
T1 construct: endogenous in cells; host or cells: Swiss 3T3 cells
Experimental: Swiss 3T3 cells were continuously passaged at subconfluence and used to monitor the capacity of compounds to block stimulus-mediated activation of Cdc42, Rac1 or RhoA in vivo. Commercial GLISA kits customized to capture activated Cdc42, Rac1 or Rho from cell lysates were used per manufacturer's instructions (Cytoskeleton, Inc.). Cells were serum starved by sequentially removing serum over a three day period and treated with DMSO or 10 μM compound in DMSO for 20-30 min. Subsequently samples were treated with EGF (10 ng/ml for Rac1 and 100 ng/ml for Cdc42) for 2 min to activate Rac1 and Cdc42 or 5 U/ml calpeptin for 10 min to activate RhoA. DMSO treated cells were left unstimulated to determine baseline GTPase activation or stimulated without drug treatment to determine maximal GTPase activation. Cell lysates were snap frozen, active Cdc42 and Rac1 were quantified based on a PAK binding assay, active RhoA was quantified based on Rho GTP-binding protein interaction. All assays were performed in 96-well microtiter plates, Purified GTP-bound Cdc42, Rac1, or RhoA served as a standards to calculate ng active GTPase in the lysates.

Cdc42 WT = molecular target: T2, Cdc42 WT (Homo sapiens, UniProt P60953); test: Bead-based flow cytometry dose response, BODIPY-FL-GTP binding; details: Table 6, R3 analogs; for EC50: read-out: Cdc42 WT EC50; for Emax: read-out: Cdc42 WT Efficacy
T2 construct: purchased Cytoskeleton
Experimental: (§1) Bead sets for multiplex assays were custom synthesized by Duke Scientific Corp (Fremont, Calif.), but may now be ordered from Thermo/Fisher. […] Negative controls, contained the bead mixture with fluorescent GTP, 0.5 mM unlabeled GTP as a competitor, and 1% DMSO. […] The resulting time-dependent data (one file per plate) were analyzed using IDLQuery software to determine the compound activity in each well. Gating based on forward scatter (FS) and side scatter (SS) parameters was used to identify singlet bead populations. Gating based on FL8 emission distinguishes the beads coated with different proteins, and the median fluorescence per bead population was calculated. […] Baselines were set to 100% based on measurements from the 1% DMSO containing positive controls as further described in PubChem. {PubChem #72}
(§2) Briefly, compounds were serially diluted 1:3 a total of eight times from a starting concentration of 10 mM giving a 9-point dilution series in DMSO. The final concentrations of inhibitors in the assay ranged from 10 nM to 100 μM. Dose-response analyses were examined in the presence of NP-HPS buffer containing: a) 1 mM EDTA; or b) 1 mM MgCl2. […] For assays with EDTA we used one multiplex (Rab7 wt, Rab2 wt, H-Ras wt, H-RasG12V, Cdc42 wt, and Cdc42Q61L) and 3 single-plexes (for Rac1 wt, Rac1 Q61L and GST-GFP).
(§3) GTPase activators were identified on the basis of an increase in fluorescent GTP-binding.
(§4) In experiments including magnesium, six GST-GTPases were assayed simultaneously in a single multiplex (Rac1 wt, Rac1Q61L, RhoA wt, RhoAL63, Cdc42 wt and Cdc42Q61L) and 1 nM BODIPY-FL-GTP binding was measured in the presence or absence of the serial drug dilution series. Each dose response series was run in duplicate.

Cdc42 ACT (Cdc42Q61L) = Cdc42 ACT (Cdc42Q61L) (Homo sapiens, UniProt P60953, Q61L); test: as above; details: Table 6, R3 analogs; read-out: Cdc42 ACT EC50
Experimental: as §1, §2, §3, §4

T2 sequence (P60953 whole entry): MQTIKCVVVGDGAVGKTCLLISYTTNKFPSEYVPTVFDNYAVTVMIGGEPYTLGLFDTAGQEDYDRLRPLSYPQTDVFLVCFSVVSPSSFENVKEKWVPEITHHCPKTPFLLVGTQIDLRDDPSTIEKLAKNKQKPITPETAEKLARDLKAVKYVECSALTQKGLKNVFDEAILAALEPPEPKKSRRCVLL
Sequence of Cdc42 ACT (Cdc42Q61L) (P60953 whole entry Q61L): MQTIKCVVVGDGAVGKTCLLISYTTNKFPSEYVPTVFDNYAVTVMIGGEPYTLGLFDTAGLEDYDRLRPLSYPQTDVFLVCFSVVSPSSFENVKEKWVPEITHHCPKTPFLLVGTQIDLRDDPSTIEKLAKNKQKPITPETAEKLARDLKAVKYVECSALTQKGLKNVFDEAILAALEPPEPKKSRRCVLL
T1 sequence (P60766 whole entry): as the sequence (P60953 whole entry) above
Sequence of Cdc42 (P60953 whole entry, species assumed): as the sequence (P60953 whole entry) above

SMILES | Fluorescent-GTP binding to Cdc42 (Cdc42) | Inhibition of Cdc42 GTPase in GLISA [1] | EC50 (Cdc42 WT) | Emax (Cdc42 WT) | EC50 (Cdc42 ACT (Cdc42Q61L))
Oc1ccc(-c2nc(-c3ccncc3)c(-c3ccc(F)cc3)[nH]2)cc1 [SB 202190] | did not inhibit |  |  |  | 
Cc1cccc(C2CC(c3ccccc3)=NN2c2ccc(S(N)(=O)=O)cc2)c1 (stereo not drawn) [CID 44143700, 4-[3-(3-methylphenyl)-5-phenyl-3,4-dihydropyrazol-2-yl]benzene sulfonamide] |  | significant response | 5 µM | 55% | 5.3 µM
Cc1ccc(C2CC(c3ccccc3)=NN2c2ccc(S(N)(=O)=O)cc2)cc1 (stereo not drawn) [CID 13927310, 4-[3-(4-methylphenyl)-5-phenyl-3,4-dihydropyrazol-2-yl]benzene sulfonamide] |  | significant response | 5 µM | 66% | 5 µM
